Values quoted from earlier work, collected in patent US20180284402A1, “TOPICAL ANALGESIC PAIN RELIEF FORMULATIONS, MANUFACTURE AND METHODS OF USE THEREOF” (priority 2016, published 2018).
Like-named read-outs stand apart in the source and are kept apart here.

Assays:
hTRPA1 [1] = molecular target: T1, hTRPA1 (Homo sapiens, UniProt O75762)
human TRPM8 (hTRPM8) = human TRPM8 (hTRPM8) (Homo sapiens, UniProt Q7Z2W7); details: Takaishi 2012
hTRPV1 = hTRPV1 (Homo sapiens, UniProt Q8NER1); details: Takaishi 2012
Sequence of hTRPV1 (Q8NER1 whole entry): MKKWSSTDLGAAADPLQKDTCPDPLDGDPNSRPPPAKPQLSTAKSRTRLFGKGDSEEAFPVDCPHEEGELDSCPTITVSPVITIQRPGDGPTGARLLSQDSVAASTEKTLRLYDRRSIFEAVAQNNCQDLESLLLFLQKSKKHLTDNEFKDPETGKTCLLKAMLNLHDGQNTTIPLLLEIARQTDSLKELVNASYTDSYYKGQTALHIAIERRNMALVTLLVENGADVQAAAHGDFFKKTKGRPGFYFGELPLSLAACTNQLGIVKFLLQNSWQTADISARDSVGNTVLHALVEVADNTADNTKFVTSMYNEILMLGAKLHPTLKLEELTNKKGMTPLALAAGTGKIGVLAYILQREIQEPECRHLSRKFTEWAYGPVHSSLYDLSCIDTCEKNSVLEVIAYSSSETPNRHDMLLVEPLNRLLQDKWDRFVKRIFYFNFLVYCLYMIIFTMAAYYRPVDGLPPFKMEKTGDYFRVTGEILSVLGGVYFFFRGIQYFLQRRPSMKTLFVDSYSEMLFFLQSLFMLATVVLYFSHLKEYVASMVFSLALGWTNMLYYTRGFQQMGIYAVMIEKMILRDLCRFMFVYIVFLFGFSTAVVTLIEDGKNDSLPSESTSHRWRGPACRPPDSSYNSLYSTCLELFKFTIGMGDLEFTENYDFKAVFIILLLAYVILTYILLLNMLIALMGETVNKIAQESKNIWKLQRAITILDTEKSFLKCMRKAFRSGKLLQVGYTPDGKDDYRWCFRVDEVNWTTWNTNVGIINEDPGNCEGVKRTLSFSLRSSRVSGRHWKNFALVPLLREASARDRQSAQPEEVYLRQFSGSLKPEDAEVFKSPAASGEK

hTRPV2 = molecular target: T2, hTRPV2 (Homo sapiens, UniProt Q9Y5S1); details: Takaishi 2012
T2 sequence (Q9Y5S1 1-764): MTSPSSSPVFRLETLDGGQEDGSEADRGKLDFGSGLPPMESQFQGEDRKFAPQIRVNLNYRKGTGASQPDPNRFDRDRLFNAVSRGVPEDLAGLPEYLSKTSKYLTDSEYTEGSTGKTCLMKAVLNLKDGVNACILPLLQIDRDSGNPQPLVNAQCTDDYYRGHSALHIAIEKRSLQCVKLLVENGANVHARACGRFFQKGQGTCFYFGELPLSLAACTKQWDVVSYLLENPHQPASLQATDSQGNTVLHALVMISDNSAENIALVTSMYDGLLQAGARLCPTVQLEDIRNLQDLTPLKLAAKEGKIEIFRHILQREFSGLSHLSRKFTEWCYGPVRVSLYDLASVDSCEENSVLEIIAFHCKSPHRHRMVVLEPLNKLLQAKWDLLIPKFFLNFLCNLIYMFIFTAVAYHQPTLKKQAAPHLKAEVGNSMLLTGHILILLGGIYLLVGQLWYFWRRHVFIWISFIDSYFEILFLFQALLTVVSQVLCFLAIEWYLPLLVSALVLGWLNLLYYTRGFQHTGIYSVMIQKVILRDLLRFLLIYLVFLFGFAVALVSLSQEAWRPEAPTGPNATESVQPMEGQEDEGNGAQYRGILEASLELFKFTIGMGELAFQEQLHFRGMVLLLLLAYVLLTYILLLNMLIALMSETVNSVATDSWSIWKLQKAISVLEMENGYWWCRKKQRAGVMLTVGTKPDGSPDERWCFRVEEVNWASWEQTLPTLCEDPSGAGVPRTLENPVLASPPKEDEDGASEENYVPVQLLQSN

hTRPA1 [2] = molecular target: T1, hTRPA1; details: compound at 1 mM; for inhibition of hTRPA1 activation by allyl isothiocyanate (mustard oil): allyl isothiocyanate at 10 uM; for inhibition of hTRPA1 activation by menthol: menthol at 1 mM
TRPV1 = details: Morales-Lazaro 2016
pain and itch responses = details: mice

T1 sequence (O75762 whole entry): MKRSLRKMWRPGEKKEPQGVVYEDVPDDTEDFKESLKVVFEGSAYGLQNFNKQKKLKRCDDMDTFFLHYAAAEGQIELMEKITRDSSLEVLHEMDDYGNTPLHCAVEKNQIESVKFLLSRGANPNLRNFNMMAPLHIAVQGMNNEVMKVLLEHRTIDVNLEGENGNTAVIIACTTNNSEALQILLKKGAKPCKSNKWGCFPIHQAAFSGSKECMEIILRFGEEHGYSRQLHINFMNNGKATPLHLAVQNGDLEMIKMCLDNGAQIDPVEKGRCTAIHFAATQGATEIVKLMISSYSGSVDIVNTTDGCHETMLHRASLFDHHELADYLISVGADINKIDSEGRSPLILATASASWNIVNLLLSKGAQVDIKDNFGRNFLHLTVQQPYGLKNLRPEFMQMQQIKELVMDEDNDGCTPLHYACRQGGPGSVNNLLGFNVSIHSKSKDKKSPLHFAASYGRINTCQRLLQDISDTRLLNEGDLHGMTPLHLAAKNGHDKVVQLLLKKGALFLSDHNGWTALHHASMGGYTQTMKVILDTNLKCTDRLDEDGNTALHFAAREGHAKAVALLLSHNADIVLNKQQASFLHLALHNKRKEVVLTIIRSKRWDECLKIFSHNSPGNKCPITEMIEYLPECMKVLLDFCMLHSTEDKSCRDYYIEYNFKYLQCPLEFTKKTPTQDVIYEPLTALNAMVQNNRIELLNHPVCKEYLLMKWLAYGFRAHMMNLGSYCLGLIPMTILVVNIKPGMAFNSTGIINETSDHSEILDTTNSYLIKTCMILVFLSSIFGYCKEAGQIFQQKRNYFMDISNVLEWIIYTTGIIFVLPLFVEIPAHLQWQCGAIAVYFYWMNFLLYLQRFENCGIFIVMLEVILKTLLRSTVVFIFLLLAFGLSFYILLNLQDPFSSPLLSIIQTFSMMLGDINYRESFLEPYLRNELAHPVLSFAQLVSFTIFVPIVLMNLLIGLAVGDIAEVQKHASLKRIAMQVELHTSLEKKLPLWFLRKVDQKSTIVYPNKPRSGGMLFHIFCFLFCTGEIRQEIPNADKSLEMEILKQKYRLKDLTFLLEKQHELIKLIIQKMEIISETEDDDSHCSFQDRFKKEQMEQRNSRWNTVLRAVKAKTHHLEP
Sequence of human TRPM8 (hTRPM8) (Q7Z2W7 whole entry): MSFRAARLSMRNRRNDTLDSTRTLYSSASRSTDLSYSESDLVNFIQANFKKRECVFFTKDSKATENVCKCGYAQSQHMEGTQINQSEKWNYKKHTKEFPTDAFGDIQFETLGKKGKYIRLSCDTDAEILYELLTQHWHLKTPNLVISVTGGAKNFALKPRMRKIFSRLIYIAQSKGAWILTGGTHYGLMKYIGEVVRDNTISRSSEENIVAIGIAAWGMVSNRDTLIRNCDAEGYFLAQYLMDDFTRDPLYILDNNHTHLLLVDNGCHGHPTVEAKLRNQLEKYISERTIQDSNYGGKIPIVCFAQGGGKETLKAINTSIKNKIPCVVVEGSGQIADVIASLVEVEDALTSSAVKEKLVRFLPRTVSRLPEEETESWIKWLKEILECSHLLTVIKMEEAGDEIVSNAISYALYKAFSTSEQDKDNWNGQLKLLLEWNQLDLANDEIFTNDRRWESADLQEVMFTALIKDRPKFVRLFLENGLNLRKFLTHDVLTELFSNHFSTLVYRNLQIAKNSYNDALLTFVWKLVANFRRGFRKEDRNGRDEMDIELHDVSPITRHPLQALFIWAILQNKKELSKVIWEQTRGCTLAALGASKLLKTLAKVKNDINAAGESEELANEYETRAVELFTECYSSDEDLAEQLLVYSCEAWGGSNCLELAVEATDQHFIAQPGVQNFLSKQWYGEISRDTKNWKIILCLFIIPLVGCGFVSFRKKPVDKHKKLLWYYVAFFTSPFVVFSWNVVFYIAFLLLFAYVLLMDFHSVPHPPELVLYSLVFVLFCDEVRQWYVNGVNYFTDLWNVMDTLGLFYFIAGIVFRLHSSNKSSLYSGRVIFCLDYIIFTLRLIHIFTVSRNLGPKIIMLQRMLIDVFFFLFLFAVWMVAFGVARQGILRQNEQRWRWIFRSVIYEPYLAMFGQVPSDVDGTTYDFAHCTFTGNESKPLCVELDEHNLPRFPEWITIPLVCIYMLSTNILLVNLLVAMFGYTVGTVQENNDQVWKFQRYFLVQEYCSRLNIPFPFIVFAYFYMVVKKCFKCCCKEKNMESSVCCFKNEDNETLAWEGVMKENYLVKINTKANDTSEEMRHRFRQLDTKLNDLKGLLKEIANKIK

| SMILES | activation of hTRPA1 (hTRPA1 [1]; Takaishi 2014) | inhibition of hTRPA1 activation by allyl isothiocyanate (mustard oil) (hTRPA1 [2]) | inhibition of hTRPA1 activation by menthol (hTRPA1 [2]) | other results |
| --- | --- | --- | --- | --- |
| CC12CCC(CC1)C(C)(C)O2 [1,8-cineole] | did not activate |  |  | activation of hTRPA1 (hTRPA1 [1]; Takaishi 2012): without activating; activation of human TRPM8 (hTRPM8) (human TRPM8 (hTRPM8)): activates; activation of hTRPV1 (hTRPV1): did not activate; activation of hTRPV2 (hTRPV2): did not activate |
| CC1(C)[C@@H]2CC[C@@]1(C)[C@](C)(O)C2 [2-methylosoborneol] | did not activate | completely inhibited | completely inhibited |  |
| CC1(C)C2CCC1(C)C(O)C2 (stereo not drawn) [borneol] | did not activate | completely inhibited | completely inhibited |  |
| CC12CCC(CC1=O)C2(C)C (stereo not drawn) [camphor] | did not activate |  |  |  |
| CC12CCC(C1)C(C)(C)C2O (stereo not drawn) [fenchyl alcohol] | did not activate | completely inhibited | completely inhibited |  |
| O=C1CC2CC[C@H]1C2 [norcamphor] | did not activate |  |  |  |
| CCCCCCCC/C=C\CCCCCCCC(=O)O [oleic acid] |  |  |  | TRPV1 activity (TRPV1): inhibited; pain and itch responses (pain and itch responses): inhibited |
